Consider 19 compounds from ChEMBL document CHEMBL4118182, “Straightforward hit identification approach in fragment-based discovery of bromodomain-containing protein 4 (BRD4) inhibitors” (Bioorg Med Chem, 2018).

pIC50: −log10 of the molar value. Active and inactive are the calls of the source. No cut-off for these calls is given here.

Series [1] deals with T1, Bromodomain-containing protein 4 (Homo sapiens, UniProt O60885). As to the kind of experiment: Binding affinity to recombinant human N-terminal His6-tagged BRD4 bromodomain 1 (44 to 168 residues) expressed in Escherichia coli BL21(DE3) assessed as change in melting temperature at 20 uM by differential scanning fluorimetry. On the technique in general: Differential scanning fluorimetry follows unfolding on heating by fluorescence.

In series [2] the target is T1, Bromodomain-containing protein 4. In words: Binding affinity to recombinant human N-terminal His6-tagged BRD4 bromodomain 1 (44 to 168 residues) expressed in Escherichia coli BL21(DE3) assessed as increase in melting temperature at 50 to 200 uM by differential scanning fluorimetry.
For series [3] the target is unchanged. In words: Binding affinity to recombinant human N-terminal His6-tagged BRD4 bromodomain 1 (44 to 168 residues) expressed in Escherichia coli BL21(DE3) assessed as change in melting temperature at 40 uM by differential scanning fluorimetry.
In series [4] the target is Carbonic anhydrase 2 (Bos taurus) (UniProt P00921). As to the kind of experiment: Binding affinity to bovine carbonic anhydrase-2 assessed as change in melting temperature at 20 uM by differential scanning fluorimetry.
Sequence of Carbonic anhydrase 2 (Bos taurus) (P00921 2-260 limits assumed): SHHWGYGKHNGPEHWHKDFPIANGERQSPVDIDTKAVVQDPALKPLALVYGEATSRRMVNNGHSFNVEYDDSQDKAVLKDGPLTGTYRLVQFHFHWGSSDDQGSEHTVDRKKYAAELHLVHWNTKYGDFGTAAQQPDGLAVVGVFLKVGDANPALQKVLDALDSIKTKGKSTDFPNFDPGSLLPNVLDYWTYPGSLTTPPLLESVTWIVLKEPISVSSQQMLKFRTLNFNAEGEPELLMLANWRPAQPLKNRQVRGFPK
Series [5] in a line: Solubility of the compound in DMSO at 200 mM. Format: physicochemical. The note with it: 200000 µM.
Series [6] is described as follows: Solubility of the compound in aqueous buffer at 1 mM. Format: physicochemical. The note with it: 1000 µM.
For series [7], the target named is T1, Bromodomain-containing protein 4. In words: Binding affinity to recombinant human N-terminal His6-tagged BRD4 bromodomain 1 (44 to 168 residues) expressed in Escherichia coli BL21(DE3) assessed as change in melting temperature at 10 uM by differential scanning fluorimetry.
The target is the same in series [8]. As to the kind of experiment: Inhibition of recombinant human N-terminal His6-tagged BRD4 by TR-FRET assay. A general note: In TR-FRET formats the signal depends on donor and acceptor labels being close together.
For series [9] the target is unchanged. In words: Inhibition of recombinant human N-terminal His6-tagged BRD4 at 20 uM by TR-FRET assay relative to control.

In general, ΔTm refers to the shift of the melting midpoint relative to a reference. Regarding `CC1Oc2ccc(N)cc2NC1=O` (centres undefined), the ΔTm in series [1] turned out to be 2.8 °C. Further, the result in series [2] was Active. The figures for the deltaTm in series [3], in series [4] and in series [7] were greater than 1 K, greater than 0.5 K and greater than 0.5 K, respectively. In addition, the solubility result in [5] and in [6] was “Soluble” in each case.

Broadly, the pIC50 is −log10 of the IC50, conventionally taken in molar units. As for `COc1cccc(C(=O)Nc2ccc3c(c2)n(C)c(=O)n3C)c1`, the pIC50 in [8] was 4.80.

By inhibition is commonly meant the share of the control response that was lost under treatment. As for `Cn1c(=O)n(C)c2cc(NC(=O)c3cc4c(s3)CCC4)ccc21`, the ΔTm in series [1] came out at 1.88 °C. Also, in series [8], the pIC50 was 5.72. In addition, the inhibition in series [9] came to 76.5%. Further, in [2], the outcome was Active. The deltaTm in [3] was greater than 1 K; in series [4], greater than 0.5 K; in [7] it was greater than 0.5 K. The solubility result in series [5] and in series [6] was “Soluble” in each case.

Consider `COc1ccc(OC)c(CCC(=O)Nc2ccc3c(c2)n(C)c(=O)n3C)c1`, for which, in [1], the ΔTm was 0.82 °C. In addition, the pIC50 in [8] was 4.22. In series [9], the inhibition is 67%. Besides, the outcome in series [2] was Active. Moreover, the deltaTm in [3] is greater than 1 K; in [4], greater than 0.5 K; in series [7] it was greater than 0.5 K. Further, the solubility entry in series [5] and in series [6] was “Soluble” in each case.

On to `Nc1ccc2nc(N3CCCC3)sc2c1`, for which the ΔTm in [1] was 1.7 °C. In addition, in series [9], the inhibition result is “Active”. In addition, the result in [2] was Active. For the same compound, the deltaTm in [3] was greater than 1 K; in series [4], greater than 0.5 K; in series [7] it was greater than 0.5 K. Further, the solubility result in [5] and in series [6] was “Soluble” in each case.

For `O=C1C(=O)N(CCCOc2ccccc2)c2ccc(Cl)cc21`, the ΔTm in series [1] was -2.63 °C. Also, the pIC50 in [8] is less than 4.00. The inhibition in series [9] came to 65.9%. For the same compound, the outcome in series [2] was inactive. Further, the deltaTm in series [3] is greater than 1 K; in series [4] it was greater than 0.5 K; in [7], greater than 0.5 K. Also, the solubility result in series [5] and in series [6] was “Soluble” in each case.

For `Cc1cc2cc(N)ccc2[nH]1`, in series [1], the ΔTm stood at 1.4 °C. In addition, the inhibition entry in [9] was “Active”. The outcome in series [2] was Active. The deltaTm was greater than 1 K in series [3], greater than 0.5 K in [4] and greater than 0.5 K in series [7]. In addition, the solubility result in series [5] and in series [6] was “Soluble” throughout.

For the compound `Cc1cc2cc(NC(=O)c3sc4nc(C(F)(F)F)ccc4c3C)ccc2[nH]1`, the ΔTm in [1] came to 1.39 °C. For the same compound, the pIC50 in series [8] is 4.62. The inhibition in series [9] was determined as 72.7%. Moreover, the result in [2] was Active. Besides, the deltaTm in series [3] is greater than 1 K; in series [4], greater than 0.5 K; in series [7], greater than 0.5 K. In addition, the solubility entry in series [5] and in series [6] was “Soluble” throughout.

As for `Cc1nc(-c2cccc(NC(=O)c3ccc4[nH]c(C)c(C)c4c3)c2)cs1`, in series [1], the ΔTm was 1.2 °C. For the same compound, the pIC50 in [8] is 5.13. Besides, the inhibition in series [9] was 80.5%. Further, the result in series [2] was Active. The values for the deltaTm in series [3], in series [4] and in [7] were greater than 1 K, greater than 0.5 K and greater than 0.5 K, respectively. Besides, the solubility result in [5] and in [6] was “Soluble” each time.

Take `Cc1cc2cc(NC(=O)c3ccc(Oc4ccc(C(F)(F)F)cn4)cc3)ccc2[nH]1`: in series [1], the ΔTm came out at 1.32 °C. Besides, the pIC50 in series [8] is 4.57. Further, the inhibition in series [9] was 63.3%. Further, the result in series [2] was Active. Further, the deltaTm in [3] is greater than 1 K; in series [4] it was greater than 0.5 K; in series [7] it was greater than 0.5 K. The solubility entry in [5] and in [6] was “Soluble” in each case.

In the case of `Cc1ccc(C(=O)Nc2ccc3nc(N4CCCC4)sc3c2)cc1[N+](=O)[O-]`, in [1], the ΔTm turned out to be 2.01 °C. In [8], the pIC50 is less than 4.00. For the same compound, the inhibition in series [9] was determined as 72.4%. For the same compound, the result in series [2] was Active. Besides, the deltaTm in [3] was greater than 1 K; in [4], greater than 0.5 K; in series [7] it was greater than 0.5 K. Further, the solubility entry in series [5] and in series [6] was “Soluble” each time.

As for `Cc1nc(-c2cccc(N)c2)cs1`, the inhibition result in [9] is “inactive”. Also, the outcome in series [2] was Active. For the same compound, the deltaTm in series [3] is greater than 1 K; in [4], greater than 0.5 K; in series [7], greater than 0.5 K. The solubility result in series [5] and in [6] was “Soluble” in each case.

Take `Cc1ccc(S(=O)(=O)Nc2ccc3c(c2)n(C)c(=O)n3C)c(C)c1`: the pIC50 in [8] was 5.60.

With `CC1(C)C(=O)Nc2cc(C(=O)O)ccc21`, the ΔTm in [1] was 2.1 °C. The outcome in [2] was Active. The figures for the deltaTm in series [3], in [4] and in [7] were greater than 1 K, greater than 0.5 K and greater than 0.5 K, respectively. In addition, the solubility entry in series [5] and in series [6] was “Soluble” throughout.

As for `Cc1nc2ccc(C(=O)O)cc2o1`, the ΔTm in [1] is -2.1 °C. The outcome in [2] was Active. Further, the deltaTm was greater than 1 K in series [3], greater than 0.5 K in [4] and greater than 0.5 K in [7]. In addition, the solubility entry in [5] and in series [6] was “Soluble” each time.

For `Cn1c(=O)n(C)c2cc(N)ccc21`, the ΔTm in series [1] is 2.8 °C. In series [9], the inhibition entry is “Active”. Besides, the outcome in series [2] was Active. The results for the deltaTm in series [3], in [4] and in series [7] were greater than 1 K, greater than 0.5 K and greater than 0.5 K, respectively. Also, the solubility result in series [5] and in [6] was “Soluble” each time.

For `CC1CCCC(C)N1C(=O)CSc1nc2sc3c(c2c(=O)n1C)CCCC3` (centres undefined), in [1], the ΔTm was -1.85 °C. The pIC50 in [8] is less than 4.00. The inhibition in series [9] was determined as 68.2%. Further, the result in series [2] was inactive. Also, the deltaTm was greater than 1 K in series [3], greater than 0.5 K in series [4] and greater than 0.5 K in series [7]. Also, the solubility entry in [5] and in series [6] was “Soluble” in each case.

On to `COCCOc1ccccc1CNc1ccc2c(c1)n(C)c(=O)n2C`, for which the ΔTm in [1] was determined as 1.39 °C. The pIC50 in series [8] is 4.68. For the same compound, the inhibition in [9] is 63.4%. For the same compound, the result in [2] was Active. The deltaTm in series [3] is greater than 1 K; in series [4], greater than 0.5 K; in series [7] it was greater than 0.5 K. For the same compound, the solubility entry in series [5] and in series [6] was “Soluble” throughout.

Turning to `Cn1cc(NC(=O)c2occc2COc2ccccc2)ccc1=O`, the ΔTm in [1] turned out to be 1.2 °C. Also, the pIC50 in series [8] was 5.52. Besides, the inhibition in series [9] was 64.4%. Moreover, the outcome in series [2] was Active. Further, the deltaTm is greater than 1 K in series [3], greater than 0.5 K in series [4] and greater than 0.5 K in series [7]. Moreover, the solubility entry in series [5] and in series [6] was “Soluble” throughout.
